Laboratory results from patent US9416128B2, “Fused heterocyclic compounds as ion channel modulators” (Gilead Sciences, Inc., priority 2013, dated 2016).

Legend:
hNaV1.1 (SCN1A) = hNaV1.1 (SCN1A) (Homo sapiens, UniProt P35498); assay: Use-dependent inhibition of the CNS NaV1.1 sodium channel; assay type: cell-based; conditions: % inhibition; for inhibition at 1 µM / inhibition at 10 µM: 25 Hz; for inhibition at 1 µM: read-out: Nav1.1 UDB 25 Hz 1 uM; for inhibition at 10 µM: read-out: Nav1.1 UDB 25 Hz 10 uM
Procedure: HEK-293 cells stably expressing wild-type (WT) hNaV1.1 (SCN1A, NCBI# AB09354) were obtained from Millipore (Cat. # CYL3009) were used to record INa. Cells are maintained with standard tissue culture procedures and stable channel expression is maintained with 400 ug/mL G418 in the culture medium. Unless otherwise noted, all reagents are purchased from Sigma-Aldrich (St Louis, Mo., U.S.A.).
Assays measuring Use-Dependent Block (UDB) of NaV1.2 are performed on an automated electrophysiology platform, QPatch 16X or QPatch HT (Sophion Bioscience, Copenhagen, Denmark), using the whole cell patch clamp technique to measure currents through the cell membrane. Series resistance compensation is set to 100% and series resistance and whole-cell compensation are performed automatically. Currents stored in the Sophion Bioscience Oracle database (Sophion Bioscience, Copenhagen, Denmark). Analysis is performed using QPatch Assay software and data are compiled in Excel 2010 (Microsoft, Seattle, Wash., U.S.A.).
The internal (pipette) solution consists of (in mM) 105 CsF, 10 NaF, 20 CsCl, 2 EGTA, 10 HEPES, 10 Dextrose with a pH of 7.35 and osmolarity of 300 mOsmol/kg. The external (bath) solution contains in (mM): 145 NaCl, 4 KCl, 1.8 CaCl2, 1 MgCl2, 10 dextrose, 10 HEPES, with a pH of 7.35 and osmolarity of 310 mOsmol/kg. Experiments are carried out at 23-25° C.
Compound stocks are routinely made by the Gilead Sample Bank in vials to 10 mM in dimethyl sulfoxide (DMSO). In some cases, when compounds are not soluble in DMSO, they are made in 100% ethanol. Stocks are sonicated as necessary. […]
Cells are allowed to stabilize for 10 min after establishment of the whole-cell configuration before current is measured. The test compound is applied 2 times at 60 second intervals. After the second compound addition, a 200 second wait period was imposed to allow for equilibration.
Leak currents are subtracted by using an online P/4 procedure and all currents are low-pass Bessel filtered at 5 kHz and digitized at […].
Use-dependent block of NaV1.2 peak current is measured during pulse number 20 of a voltage pulse train (0 mV, 20 ms, 20 pulses, 25 Hz) from a holding potential of −120 mV. Currents are normalized to the peak current recorded in response to the first pulse in each frequency train. The voltage protocol for UDB was performed in the absence and presence of compound and percentage inhibition was calculated with respect to the compound free condition. Results are presented as mean percentage inhibition and data analysis is performed using QPatch Assay Software 4.0, and Excel 2002 (Microsoft, Seattle, Wash., U.S.A.).

[1] = biological target: wild-type human cardiac sodium channel, hNaV 1.5 (Late INa) (Homo sapiens, UniProt Q14524); assay: Late INa screening assay (whole cell patch clamp, QPatch, Tefluthrin-induced late current); assay type: cell-based; conditions: HEK293, % inhibition (percent block of late INa) at 1 uM; HEK293 hNaV1.5; 10 μM Tefluthrin; read-out: Nav1.5 Late INa 1 uM
Procedure: The cardiac late sodium current (Late INa) and peak sodium current (Peak INa) assays are performed on an automated electrophysiology platform, QPatch 16X or QPatch HT (Sophion Bioscience, Copenhagen, Denmark) using the whole cell patch clamp technique to measure currents through the cell membrane. The assay uses an HEK293 (human embryonic kidney) cell line heterologously expressing the wild-type human cardiac sodium channel, hNaV 1.5, purchased from Millipore (Billerica, Mass.). No beta subunits were coexpressed with the Na channel alpha subunit. Cells are maintained with standard tissue culture procedures and stable channel expression is maintained with 400 μg/mL Geneticin in the culture medium. Experiments are carried out at 23-25° C.
For both the Late INa and Peak INa assays, series resistance compensation is set to 100% and series resistance and whole-cell compensation are performed automatically. Currents are digitized at 25 kHz and low-pass filtered at 5 kHz and stored in the Sophion Bioscience Oracle database (Sophion Bioscience, Copenhagen, Denmark). Analysis is performed using QPatch Assay software and data are compiled in Excel 2010 (Microsoft, Seattle, Wash., U.S.A.).
Compound stocks are routinely made by the Gilead Sample Bank in vials to 10 mM in dimethyl sulfoxide (DMSO). In some cases, when compounds are not soluble in DMSO, they are made in 100% ethanol. Stocks are sonicated as necessary. The extracellular solution for screening Late INa is composed of: 140 mM NaCl, 4 mM KCl, 1.8 mM CaCl2, 1 mM MgCl2, 10 mM HEPES and 10 mM Dextrose with pH adjusted to 7.35 using NaOH. The intracellular solution contains: 105 mM CsF, 20 mM CsCl, 10 NaF, 2 mM EGTA, 10 mM HEPES and 10 mM Dextrose with pH adjusted to 7.35 with CsOH. Compounds are diluted in extracellular solution using a MicroLab Nimbus (Hamilton Robotics, Reno, Nev.) to between 0.3 and 3 μM in glass vials and transferred to glass well plates before robotic addition to the cells. The 0 mM Na extracellular solution (0Na-ECF) used at the end of each experiment for the Late INa and Peak INa assays to measure baseline current contains: 140 Choline-Cl; 4 mM KCl, 1.8 mM CaCl2; 1 mM MgCl2; 10 mM HEPES and 10 mM Dextrose with pH was adjusted to 7.35 with CsOH.
For the Late INa assay, sodium channels are activated every 10 seconds (0.1 Hz) by depolarizing the cell membrane to −20 mV for 250 milliseconds (ms) from a holding potential of −120 mV.
Compounds were tested to determine their activity in blocking the late sodium current. Late INa was generated by adding 10 μM Tefluthrin (pyrethroid) to the extracellular solution. For the purposes of the screening, Late INa is defined as the mean current between 240 ms and 265 ms during the voltage step to −20 mV. After establishing the whole cell recording configuration, Late INa activator is added to each well 4 times over a 15 minute period so that the late component of the Na current reaches a stable value. Compounds were then added (typically at 0.3 or 1 μM), in the presence of the Late INa activator, with 3 additions over the course of 5 minutes. Measurements were made at the end of exposure to the third compound addition and values were normalized to the current level when all Na^+ was removed from the extracellular solution after two additions of 0Na-ECF.
Results are reported as percent block of late INa and results were analyzed by incorporating rundown correction for the Late INa.

Chain of wild-type human cardiac sodium channel, hNaV 1.5 (Late INa) (Q14524 whole entry): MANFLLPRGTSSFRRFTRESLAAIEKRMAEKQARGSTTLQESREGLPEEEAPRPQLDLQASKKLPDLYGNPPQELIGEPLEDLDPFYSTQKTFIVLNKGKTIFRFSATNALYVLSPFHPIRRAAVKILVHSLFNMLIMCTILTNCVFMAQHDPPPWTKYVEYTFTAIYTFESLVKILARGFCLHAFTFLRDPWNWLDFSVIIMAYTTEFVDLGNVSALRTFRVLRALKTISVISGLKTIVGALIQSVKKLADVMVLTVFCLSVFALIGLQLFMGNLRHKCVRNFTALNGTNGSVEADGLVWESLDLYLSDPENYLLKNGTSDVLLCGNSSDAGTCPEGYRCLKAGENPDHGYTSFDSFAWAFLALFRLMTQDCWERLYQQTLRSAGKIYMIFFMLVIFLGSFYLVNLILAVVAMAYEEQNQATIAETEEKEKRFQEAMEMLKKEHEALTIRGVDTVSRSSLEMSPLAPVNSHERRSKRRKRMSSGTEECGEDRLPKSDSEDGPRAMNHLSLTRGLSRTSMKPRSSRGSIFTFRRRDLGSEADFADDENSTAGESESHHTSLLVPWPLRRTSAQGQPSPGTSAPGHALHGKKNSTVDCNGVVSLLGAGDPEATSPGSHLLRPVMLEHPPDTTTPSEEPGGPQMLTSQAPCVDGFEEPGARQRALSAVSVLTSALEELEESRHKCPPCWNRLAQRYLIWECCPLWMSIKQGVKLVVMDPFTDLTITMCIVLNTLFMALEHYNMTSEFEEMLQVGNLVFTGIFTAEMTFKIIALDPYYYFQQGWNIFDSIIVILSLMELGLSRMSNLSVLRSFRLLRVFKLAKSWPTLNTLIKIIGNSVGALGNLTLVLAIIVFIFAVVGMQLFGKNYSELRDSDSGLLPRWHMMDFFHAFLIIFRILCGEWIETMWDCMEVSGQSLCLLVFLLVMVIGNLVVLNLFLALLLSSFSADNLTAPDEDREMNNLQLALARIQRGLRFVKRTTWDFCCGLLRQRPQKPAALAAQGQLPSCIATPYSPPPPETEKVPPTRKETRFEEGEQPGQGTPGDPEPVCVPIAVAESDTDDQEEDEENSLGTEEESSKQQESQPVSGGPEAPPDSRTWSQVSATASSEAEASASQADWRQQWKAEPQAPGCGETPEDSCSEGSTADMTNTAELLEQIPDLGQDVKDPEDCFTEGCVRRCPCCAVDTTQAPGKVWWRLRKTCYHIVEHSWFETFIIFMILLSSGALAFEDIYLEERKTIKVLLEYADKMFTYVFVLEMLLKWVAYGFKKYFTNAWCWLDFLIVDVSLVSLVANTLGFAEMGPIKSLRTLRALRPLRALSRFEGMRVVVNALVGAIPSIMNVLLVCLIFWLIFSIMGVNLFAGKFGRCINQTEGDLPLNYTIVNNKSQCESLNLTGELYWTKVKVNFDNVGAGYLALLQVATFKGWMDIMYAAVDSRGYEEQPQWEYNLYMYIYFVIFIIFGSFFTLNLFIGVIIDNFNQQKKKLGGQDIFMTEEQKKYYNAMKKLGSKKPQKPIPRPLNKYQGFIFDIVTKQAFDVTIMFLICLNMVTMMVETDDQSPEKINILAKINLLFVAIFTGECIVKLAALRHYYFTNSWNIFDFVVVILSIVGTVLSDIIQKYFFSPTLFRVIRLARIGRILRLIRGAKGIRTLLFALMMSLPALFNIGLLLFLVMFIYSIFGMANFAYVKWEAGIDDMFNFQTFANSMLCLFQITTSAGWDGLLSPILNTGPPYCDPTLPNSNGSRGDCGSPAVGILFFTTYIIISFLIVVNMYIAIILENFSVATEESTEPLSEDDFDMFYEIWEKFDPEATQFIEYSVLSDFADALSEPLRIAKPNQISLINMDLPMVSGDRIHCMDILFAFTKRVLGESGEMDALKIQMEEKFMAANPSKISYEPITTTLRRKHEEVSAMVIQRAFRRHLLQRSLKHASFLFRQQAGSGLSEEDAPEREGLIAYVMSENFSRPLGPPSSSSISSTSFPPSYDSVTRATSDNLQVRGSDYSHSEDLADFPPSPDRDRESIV

SMILES | inhibition at 1 µM (hNaV1.1 (SCN1A); use-dependent block at 1 uM) [%] | inhibition at 10 µM (hNaV1.1 (SCN1A); use-dependent block at 10 uM) [%] | inhibition at 1 µM [1] [%] | Nav1.1 UDB 25 Hz 1 uM (hNaV1.1 (SCN1A); use-dependent block at 1 uM) [%] | Nav1.1 UDB 25 Hz 10 uM (hNaV1.1 (SCN1A); use-dependent block at 10 uM) [%]
O=C1Oc2ccc(-c3ccc(OC(F)(F)F)c(F)c3)cc2CN1Cc1ncccn1 [Example 10, 6-(3-fluoro-4-(trifluoromethoxy)phenyl)-3-(pyrimidin-2-ylmethyl)-3,4-dihydro-2H-benzo[e][1,3]oxazin-2-one] | 35 | 75.9 | 57.2 | – | –
COc1cc(C(F)(F)F)ccc1-c1ccc2c(c1)CN(Cc1ncc(C)cn1)C(=O)O2 [Example 42, 6-(2-methoxy-4-(trifluoromethyl)phenyl)-3-((5-methylpyrimidin-2-yl)methyl)-3,4-dihydro-2H-benzo[e][1,3]oxazin-2-one] | 11.5 | 47.9 | 42.7 | – | –
Cc1ccnc(CN2Cc3cc(-c4ccc(OC(F)(F)F)cc4C)ccc3OC2=O)n1 [Example 33, 6-(2-methyl-4-(trifluoromethoxy)phenyl)-3-((4-methylpyrimidin-2-yl)methyl)-3,4-dihydro-2H-benzo[e][1,3]oxazin-2-one] | 5.5 | 61.4 | 33 | – | –
CCCOc1cc(C(F)(F)F)ccc1-c1ccc2c(c1)CN(CCc1ncccn1)C(=O)O2 [Example 19, 6-(2-propoxy-4-(trifluoromethyl)phenyl)-3-(2-(pyrimidin-2-yl)ethyl)-3,4-dihydro-2H-benzo[e][1,3]oxazin-2-one] | 30.8 | 78.4 | 68 | – | –
Cc1csc(CN2Cc3cc(-c4ccc(OC(F)(F)F)c(F)c4)ccc3OC2=O)n1 [Example 53, 6-(3-fluoro-4-(trifluoromethoxy)phenyl)-3-((4-methylthiazol-2-yl)methyl)-3,4-dihydro-2H-benzo[e][1,3]oxazin-2-one] | 52.7 | 87.6 | 60.3 | – | –
Cc1cnc(CN2Cc3cc(-c4ccc(C(F)(F)F)cc4C)ccc3OC2=O)nc1 [Example 43, 6-(2-methyl-4-(trifluoromethyl)phenyl)-3-((5-methylpyrimidin-2-yl)methyl)-3,4-dihydro-2H-benzo[e][1,3]oxazin-2-one] | < 5 | 51.4 | 37.9 | – | –
Cc1ccnc(CN2Cc3cc(-c4ccc(OC(F)(F)F)cc4F)ccc3OC2=O)n1 [Example 32, 6-(2-fluoro-4-(trifluoromethoxy)phenyl)-3-((4-methylpyrimidin-2-yl)methyl)-3,4-dihydro-2H-benzo[e][1,3]oxazin-2-one] | 10.8 | 61.8 | 43.4 | – | –
Cc1cc(OC(F)(F)F)ccc1-c1ccc2c(c1)CN(Cc1ncccn1)C(=O)O2 [Example 8, 6-(2-methyl-4-(trifluoromethoxy)phenyl)-3-(pyrimidin-2-ylmethyl)-3,4-dihydro-2H-benzo[e][1,3]oxazin-2-one] | < 5 | 11.6 | 52.7 | – | –
COc1cc(OC(F)(F)F)ccc1-c1ccc2c(c1)CN(Cc1ccccn1)C(=O)O2 [Example 22, 6-(2-methoxy-4-(trifluoromethoxy)phenyl)-3-(pyridin-2-ylmethyl)-3,4-dihydro-2H-benzo[e][1,3]oxazin-2-one] | < 5 | 56.3 | 48.3 | – | –
O=C1Oc2ccc(-c3ccc(OC(F)(F)F)cc3)cc2CN1CCc1ncccn1 [Example 16, 3-(2-(pyrimidin-2-yl)ethyl)-6-(4-(trifluoromethoxy)phenyl)-3,4-dihydro-2H-benzo[e][1,3]oxazin-2-one] | 17.3 | 52.2 | 48.5 | – | –
Cc1csc(CN2Cc3cc(-c4ccc(OC(F)(F)F)c(C)c4)ccc3OC2=O)n1 [Example 54, 6-(3-methyl-4-(trifluoromethoxy)phenyl)-3-((4-methylthiazol-2-yl)methyl)-3,4-dihydro-2H-benzo[e][1,3]oxazin-2-one] | < 5 | 36.7 | 31 | – | –
Cc1ccnc(CN2Cc3cc(-c4ccc(C(F)(F)F)cc4)ccc3OC2=O)n1 [Example 30, 3-((4-methylpyrimidin-2-yl)methyl)-6-(4-(trifluoromethyl)phenyl)-3,4-dihydro-2H-benzo[e][1,3]oxazin-2-one] | 49.7 | 87.5 | 54.5 | – | –
Cc1cc(-c2ccc3c(c2)CN(Cc2ncccn2)C(=O)O3)ccc1OC(F)(F)F [Example 5, 6-(3-methyl-4-(trifluoromethoxy)phenyl)-3-(pyrimidin-2-ylmethyl)-3,4-dihydro-2H-benzo[e][1,3]oxazin-2-one] | < 5 | 15.3 | 37.3 | – | –
CC(C)Oc1cc(OC(F)(F)F)ccc1-c1ccc2c(c1)CN(Cc1ncccn1)C(=O)O2 [Example 39, 6-(2-isopropoxy-4-(trifluoromethoxy)phenyl)-3-(pyrimidin-2-ylmethyl)-3,4-dihydro-2H-benzo[e][1,3]oxazin-2-one] | 39.1 | 73.4 | 33.7 | – | –
COc1cc(OC(F)(F)F)ccc1-c1ccc2c(c1)CN(Cc1nc(C)cs1)C(=O)O2 [Example 58, 6-(2-methoxy-4-(trifluoromethoxy)phenyl)-3-((4-methylthiazol-2-yl)methyl)-3,4-dihydro-2H-benzo[e][1,3]oxazin-2-one] | 7.8 | 68.7 | 44.1 | – | –
COc1cc(OC(F)(F)F)ccc1-c1ccc2c(c1)CN(Cc1ncccn1)C(=O)O2 [Example 1, 6-(2-methoxy-4-(trifluoromethoxy)phenyl)-3-(pyrimidin-2-ylmethyl)-3,4-dihydro-2H-benzo[e][1,3]oxazin-2-one] | – | – | – | <5 | 34.4
